Data: patent US11505543B2, “4-oxo-3,4-dihydroquinazoline compounds as inhibitors of human immunodeficiency virus replication” (VIIV HEALTHCARE UK (NO.5) LIMITED, priority 2018, dated 2022)

What was measured:
[1] = test system: recombinant NL4-3 virus (nef section replaced with Renilla luciferase gene) in MT-2 cells; test: HIV cell culture assay (antiviral activity, luciferase readout); format: cell-based; conditions: Renilla, NL43, MT-2 cells infected for 4-5 days with recombinant NL4-3 Renilla luciferase virus, serial dilutions of compound
Method in brief: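 EC50 was derived by median-effect curve fitting of luciferase activity. The signal comes from MT-2 cells infected for 4–5 days with 293T-produced NL4-3 reporter virus, nef partly replaced by Renilla luciferase, in the presence of serially diluted compound.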

[2] = Compound cytotoxicity, XTT-based colorimetric assay; format: cell-based; conditions: human, uninfected MT2 cells, day 4, XTT
Method in brief: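 Run under the antiviral-assay protocol but without virus. Viability was read on day 4 and CC50 values were derived from the readout.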

Question: Which EC50 [1] does the source give for Cc1ccnc(-c2ccc3c(=O)n(-c4ccc(Cl)c5c(NS(=O)(=O)C6CC6)nn(CC(F)F)c45)c([C@H](Cc4cc(F)cc(F)c4)NC(=O)Cn4nc(C(F)F)c5c4C(F)(F)[C@@H]4C[C@H]54)nc3c2)n1 [Example 159, N-((S)-1-(3-(4-chloro-3-(cyclopropanesulfonamido)-1-(2,2-difluoroethyl)-1H-indazol-7-yl)-7-(4-methylpyrimidin-2-yl)-4-oxo-3,4-dihydroquinazolin-2-yl)-2-(3,5-difluorophenyl)ethyl)-2-((3bS,4aR)-3-(difluoromethyl)-5,5-difluoro-3b,4,4a,5-tetrahydro-1H-cyclopropa[3,4]cyclopenta[1,2-c]pyrazol-1-yl)acetamide] here?
Answer: 0.1 nM

Question: And the CC50 at 4 day [2]?
Answer: > 500 nM

Question: Which EC50 [1] does the source give for Cn1nc(NS(C)(=O)=O)c2c(Cl)ccc(-n3c([C@H](Cc4cc(F)cc(F)c4)NC(=O)Cn4nc(C(F)F)c5c4C(F)(F)[C@@H]4C[C@H]54)nc4cc(-c5ccc(F)c(F)c5F)ccc4c3=O)c21 [Example 168, N-((S)-1-(3-(4-chloro-1-methyl-3-(methylsulfonamido)-1H-indazol-7-yl)-4-oxo-7-(2,3,4-trifluorophenyl)-3,4-dihydroquinazolin-2-yl)-2-(3,5-difluorophenyl)ethyl)-2-((3bS,4aR)-3-(difluoromethyl)-5,5-difluoro-3b,4,4a,5-tetrahydro-1H-cyclopropa[3,4]cyclopenta[1,2-c]pyrazol-1-yl)acetamide] here?
Answer: 0.7 nM

Question: What about the CC50 at 4 day [2] of the same compound?
Answer: > 500 nM

Question: For CS(=O)(=O)Nc1nn(CC(F)(F)F)c2c(-n3c([C@H](Cc4cc(F)cc(F)c4)NC(=O)Cn4nc(C(F)(F)F)c5c4C(F)(F)[C@@H]4C[C@H]54)nc4cc(-c5ccccc5F)ccc4c3=O)ccc(Cl)c12 [Example 182, N-((S)-1-(3-(4-chloro-3-(methylsulfonamido)-1-(2,2,2-trifluoroethyl)-1H-indazol-7-yl)-7-(2-fluorophenyl)-4-oxo-3,4-dihydroquinazolin-2-yl)-2-(3,5-difluorophenyl)ethyl)-2-((3bS,4aR)-5,5-difluoro-3-(trifluoromethyl)-3b,4,4a,5-tetrahydro-1H-cyclopropa[3,4]cyclopenta[1,2-c]pyrazol-1-yl)acetamide], which EC50 [1] is on record?
Answer: 0.87 nM

Question: And the CC50 at 4 day [2]?
Answer: > 500 nM

Question: For Cc1ncc(-c2ccc3c(=O)n(-c4ccc(Cl)c5c(NS(C)(=O)=O)nn(CC(F)F)c45)c([C@H](Cc4cc(F)cc(F)c4)NC(=O)Cn4nc(C(F)F)c5c4C(F)(F)[C@@H]4C[C@H]54)nc3c2)cn1 [Example 174, N-((S)-1-(3-(4-chloro-1-(2,2-difluoroethyl)-3-(methylsulfonamido)-1H-indazol-7-yl)-7-(2-methylpyrimidin-5-yl)-4-oxo-3,4-dihydroquinazolin-2-yl)-2-(3,5-difluorophenyl)ethyl)-2-((3bS,4aR)-3-(difluoromethyl)-5,5-difluoro-3b,4,4a,5-tetrahydro-1H-cyclopropa[3,4]cyclopenta[1,2-c]pyrazol-1-yl)acetamide], which EC50 [1] is on record?
Answer: 0.033 nM

Question: And the CC50 at 4 day [2]?
Answer: > 500 nM

Question: For O=C(Cn1ccc(C2CC2)n1)N[C@@H](Cc1cc(F)cc(F)c1)c1nc2cc(-c3cccc(-c4ccccc4)c3)ccc2c(=O)n1-c1ccc(S(=O)(=O)N2CCOCC2)cc1 [Example 147, (S)-N-(1-(7-([1,1′-biphenyl]-3-yl)-3-(4-(morpholinosulfonyl)phenyl)-4-oxo-3,4-dihydroquinazolin-2-yl)-2-(3,5-difluorophenyl)ethyl)-2-(3-cyclopropyl-1H-pyrazol-1-yl)acetamide], which EC50 [1] is on record?
Answer: 121 nM

Question: What about the CC50 at 4 day [2] of the same compound?
Answer: > 1000 nM

Question: Which results are given for Cn1nc(NS(C)(=O)=O)c2c(Cl)ccc(-n3c([C@H](Cc4cc(F)cc(F)c4)NC(=O)Cn4nc(C(F)F)c5c4C(F)(F)[C@@H]4C[C@H]54)nc4cc(-c5ccccc5Oc5ccccc5)ccc4c3=O)c21 (atropisomer, axis not shown; (aR)) [Example 107, N-((S)-1-(3-(4-chloro-1-methyl-3-(methylsulfonamido)-1H-indazol-7-yl)-4-oxo-7-(2-phenoxyphenyl)-3,4-dihydroquinazolin-2-yl)-2-(3,5-difluorophenyl)ethyl)-2-((3bS,4aR)-3-(difluoromethyl)-5,5-difluoro-3b,4,4a,5-tetrahydro-1H-cyclopropa[3,4]cyclopenta[1,2-c]pyrazol-1-yl)acetamide]?
Answer: EC50 [1]: 10 nM; CC50 at 4 day [2]: > 1000 nM

Question: Which results are given for COc1ccnc(-c2ccc3c(=O)n(-c4ccc(Cl)c5c(NS(C)(=O)=O)nn(C)c45)c([C@H](Cc4cc(F)cc(F)c4)NC(=O)Cn4nc(C(F)F)c5c4C(F)(F)[C@@H]4C[C@H]54)nc3c2)n1 (atropisomer, axis not shown; (aR)) [Example 117, N-((S)-1-(3-(4-chloro-1-methyl-3-(methylsulfonamido)-1H-indazol-7-yl)-7-(4-methoxypyrimidin-2-yl)-4-oxo-3,4-dihydroquinazolin-2-yl)-2-(3,5-difluorophenyl)ethyl)-2-((3bS,4aR)-3-(difluoromethyl)-5,5-difluoro-3b,4,4a,5-tetrahydro-1H-cyclopropa[3,4]cyclopenta[1,2-c]pyrazol-1-yl)acetamide]?
Answer: EC50 [1]: 0.058 nM; CC50 at 4 day [2]: > 500 nM

Question: With Cn1nc(NS(C)(=O)=O)c2c(Cl)ccc(-n3c([C@H](Cc4cc(F)cc(F)c4)NC(=O)Cn4nc(C(F)F)c5c4C(F)(F)[C@@H]4C[C@H]54)nc4cc(-c5ccc(S(=O)(=O)N6CCOCC6)cc5)ccc4c3=O)c21 (atropisomer, axis not shown; (aR)) [Example 91, N-((S)-1-(3-(4-chloro-1-methyl-3-(methylsulfonamido)-1H-indazol-7-yl)-7-(4-(morpholinosulfonyl)phenyl)-4-oxo-3,4-dihydroquinazolin-2-yl)-2-(3,5-difluorophenyl)ethyl)-2-((3bS,4aR)-3-(difluoromethyl)-5,5-difluoro-3b,4,4a,5-tetrahydro-1H-cyclopropa[3,4]cyclopenta[1,2-c]pyrazol-1-yl)acetamide] as the compound, how does the EC50 [1] read?
Answer: 0.39 nM

Question: What about the CC50 at 4 day [2] of the same compound?
Answer: > 1000 nM

Question: Which results are given for Cc1cccc(C)c1-c1ccc2c(=O)n(-c3ccc(S(=O)(=O)N4CCOCC4)cc3)c([C@H](Cc3cc(F)cc(F)c3)NC(=O)Cn3nc(C(F)F)c4c3C(F)(F)[C@@H]3C[C@H]43)nc2c1 [Example 77, 2-((3bS,4aR)-3-(difluoromethyl)-5,5-difluoro-3b,4,4a,5-tetrahydro-1H-cyclopropa[3,4]cyclopenta[1,2-c]pyrazol-1-yl)-N-((S)-2-(3,5-difluorophenyl)-1-(7-(2,6-dimethylphenyl)-3-(4-(morpholinosulfonyl)phenyl)-4-oxo-3,4-dihydroquinazolin-2-yl)ethyl)acetamide]?
Answer: EC50 [1]: 4.2 nM; CC50 at 4 day [2]: > 1000 nM

Question: For Cn1nc(NS(C)(=O)=O)c2c(Cl)ccc(-n3c([C@H](Cc4cc(F)cc(F)c4)NC(=O)Cn4nc(C(F)F)c5c4C(F)(F)[C@@H]4C[C@H]54)nc4cc(-c5ccc(F)c(F)c5)ccc4c3=O)c21 [Example 173, N-((S)-1-(3-(4-chloro-1-methyl-3-(methylsulfonamido)-1H-indazol-7-yl)-7-(3,4-difluorophenyl)-4-oxo-3,4-dihydroquinazolin-2-yl)-2-(3,5-difluorophenyl)ethyl)-2-((3bS,4aR)-3-(difluoromethyl)-5,5-difluoro-3b,4,4a,5-tetrahydro-1H-cyclopropa[3,4]cyclopenta[1,2-c]pyrazol-1-yl)acetamide], which EC50 [1] is on record?
Answer: 0.68 nM

Question: And the CC50 at 4 day [2]?
Answer: > 500 nM

Question: With Cn1nc(NS(C)(=O)=O)c2c(Cl)ccc(-n3c([C@H](Cc4cc(F)cc(F)c4)NC(=O)Cn4nc(C(F)F)c5c4C(F)(F)[C@@H]4C[C@H]54)nc4cc(-c5ccc(F)cc5CO)ccc4c3=O)c21 (atropisomer, axis not shown; (aR)) [Example 105, N-((S)-1-(3-(4-chloro-1-methyl-3-(methylsulfonamido)-1H-indazol-7-yl)-7-(4-fluoro-2-(hydroxymethyl)phenyl)-4-oxo-3,4-dihydroquinazolin-2-yl)-2-(3,5-difluorophenyl)ethyl)-2-((3bS,4aR)-3-(difluoromethyl)-5,5-difluoro-3b,4,4a,5-tetrahydro-1H-cyclopropa[3,4]cyclopenta[1,2-c]pyrazol-1-yl)acetamide] as the compound, how does the EC50 [1] read?
Answer: 0.34 nM

Question: What about the CC50 at 4 day [2] of the same compound?
Answer: > 1000 nM

Question: Which results are given for Cn1nc(NS(C)(=O)=O)c2c(Cl)ccc(-n3c([C@H](Cc4cc(F)cc(F)c4)NC(=O)Cn4nc(C(F)F)c5c4C(F)(F)[C@@H]4C[C@H]54)nc4cc(-c5cccnc5)ccc4c3=O)c21 (atropisomer, axis not shown; (aR)) [Example 71, N-((S)-1-(3-(4-chloro-1-methyl-3-(methylsulfonamido)-1H-indazol-7-yl)-4-oxo-7-(pyridin-3-yl)-3,4-dihydroquinazolin-2-yl)-2-(3,5-difluorophenyl)ethyl)-2-((3bS,4aR)-3-(difluoromethyl)-5,5-difluoro-3b,4,4a,5-tetrahydro-1H-cyclopropa[3,4]cyclopenta[1,2-c]pyrazol-1-yl)acetamide]?
Answer: EC50 [1]: 0.18 nM; CC50 at 4 day [2]: > 1000 nM

Question: For O=C(Cn1ccc(C2CC2)n1)N[C@@H](Cc1cc(F)cc(F)c1)c1nc2cc(-c3ccc(Cl)cc3Cl)ccc2c(=O)n1-c1ccc(S(=O)(=O)N2CCOCC2)cc1 [Example 81, (S)-2-(3-cyclopropyl-1H-pyrazol-1-yl)-N-(1-(7-(2,4-dichlorophenyl)-3-(4-(morpholinosulfonyl)phenyl)-4-oxo-3,4-dihydroquinazolin-2-yl)-2-(3,5-difluorophenyl)ethyl)acetamide], which EC50 [1] is on record?
Answer: 56 nM

Question: What about the CC50 at 4 day [2] of the same compound?
Answer: > 1000 nM

Question: Which results are given for Cc1cccc(-c2ccc3c(=O)n(-c4ccc(Cl)c5c(NS(C)(=O)=O)nn(CC(F)(F)F)c45)c([C@H](Cc4cc(F)cc(F)c4)NC(=O)Cn4nc(C(F)F)c5c4C(F)(F)[C@@H]4C[C@H]54)nc3c2)n1 [Example 161, N-((S)-1-(3-(4-chloro-3-(methylsulfonamido)-1-(2,2,2-trifluoroethyl)-1H-indazol-7-yl)-7-(6-methylpyridin-2-yl)-4-oxo-3,4-dihydroquinazolin-2-yl)-2-(3,5-difluorophenyl)ethyl)-2-((3bS,4aR)-3-(difluoromethyl)-5,5-difluoro-3b,4,4a,5-tetrahydro-1H-cyclopropa[3,4]cyclopenta[1,2-c]pyrazol-1-yl)acetamide]?
Answer: EC50 [1]: 0.12 nM; CC50 at 4 day [2]: > 500 nM
